Results as given in paper PMC3547732 (Chemistry Central Journal, 2012).

Columns and labels:
[1] = tested on: Triton induced hyperlipidemia; assay: Hypolipidemic activity in Triton induced hyperlipidemia in rats; type: in vivo, male Wistar rats; conditions: Triton treated rats, 30 mg/kg oral gavage 2 h before Triton i.p., plasma 18 h after triton injection
Method: The rats were housed under optimal laboratory conditions, maintained on 12 h light and dark cycle and had free access to food (Hindustan Lever Products, Kolkata, India) and water. Animals were acclimatized to laboratory conditions before the tests. All experiments were carried out between 0900 and 1700 h. The experimental protocols were approved by the Institutional Animal Ethics Committee and conducted according to the Indian National Science Academy guidelines for the use and care of animals. Fifty five male Wistar rats were divided into the following 11 groups containing 5 animals in each group: Atrovastain and various solvates were freshly suspended in 0.5% carboxymethyl cellulose and administered by oral gavage. Two hours later, all groups except control animals received intraperitonial injection of Triton (100 mg/kg). Eighteen hours after triton injection, blood was collected from tail vein. Plasma was separated and stored at −20°C for further biochemical analysis. Total cholesterol and triglyceride were analyzed in plasma samples using diagnostic kits as per manufacturer instructions.

[2] = Enthalpy of solution by microreaction calorimetry; type: physicochemical; conditions: for Molar enthalpy of solution in its own solvent, Solvates (ΔsolH^2): each solvate in its own solvent of solvation; for Molar enthalpy of solution in its own solvent, Solvates (ΔsolH^2) / Molar enthalpy of solution, Methanol ΔsolH (methanol): 25°C
Method: Molar enthalpy of solution (ΔHsol) was determined in phosphate buffer (pH8) as well as in methanol.
In order to determine the enthalpy associated with the solvation process the enthalpy of solution of a particular solvate was determined in its own solvent.
(3) ΔsolyH=ΔsolH^1−ΔsolH^2
Calorimetric studies were performed on Microreaction calorimeter obtained from Thermal Hazards Technology, UK. Two different solvents, viz, the phosphate buffer (pH 2) and methanol were used to determine the enthalpy of solution and the measurements were performed at 25°C. The size of sample used in this study ranged from 10 to 20 mg and was weighed (Sartorius Model CP225D) into a cylindrical glass tube covered with parafilm on one side. This cylindrical tube was submerged into the ampoule containing the solvent. A plunger with a cap was put from the open end of the tube. The same solvent was put into the reference ampoule. These were put into the sample and reference holes until both rest on the base of the holes. The apparatus was maintained at constant temperature at 25°C (±0.0005°C). The parafilm was shattered mechanically by means of plunger.

[3] = Desolvation of solvates by DSC and TGA; type: physicochemical; conditions: for Desolvation temperature: DSC desolvation endotherm maximum, 10°C/min; for Enthalpy of desolvation, ΔdesolvH calculated from equation 4: calculated from enthalpies of solution, heat capacities and enthalpy of vapourization; for Enthalpy of desolvation per mole of solvent (binding energy): equation 1 from DSC desolvation enthalpy and TGA mass loss
Excerpt: The desolvation temperatures account for the stability of solvates as the desolvation temperature in all these forms is much higher than the boiling point of the corresponding solvent. The quantitative estimate of the stability of these solvates is established by determining the binding energy for the solvents in all the solvates using equation 1 where the percent mass loss measured over the TG desolvation step of each solvate (ΔmS%) was related to the enthalpy change calculated over the corresponding DSC desolvation endotherm (ΔHSexp).
(1) ΔHS=ΔHSexp×100Δms%×Ms
where ΔHS (J mol^-1) is the enthalpy of desolvation (or binding energy) per mole of the bound solvent, MS is the molecular mass of the solvent.
(4) ΔdesolyH=ΔsolnH^2−ΔsolnH^1−ΔCPTdesoly−25+1/2ΔyapH
. A mass between 2–8 mg was taken into the aluminium pan, covered with lid and sealed. DSC curves were obtained under a nitrogen purge of 50 mL per minute at a heating rate of 10°C per minute with the temperature range from 50-350°C.
Loss of solvent from the samples was characterized by TGA obtained by TA Instruments-Waters LLC, USA. TGA traces were recorded at heating rates of 10°C per minute under a nitrogen purge of 50 ml per minute. Samples with masses between 1–10 mg were analyzed using platinum pan. Mass loss (%) was calculated based on the mass of the original sample.

[4] = Enthalpy of solution by microreaction calorimetry; type: physicochemical; conditions: 25°C

Row | Structure (SMILES) | Total Cholesterol [1] | Triglyceride [1] | Molar enthalpy of solution in its own solvent, Solvates (ΔsolH^2) [2] | Molar enthalpy of solution, Methanol ΔsolH (methanol) [2] | Desolvation temperature ([3]; listed as Solvate-VI) | Desolvation temperature ([3]; listed as solvate-VI) | Enthalpy of desolvation, ΔdesolvH calculated from equation 4 [3] | Enthalpy of desolvation per mole of solvent (binding energy) [3] | Enthalpy of desolvation, ΔdesolvH from DSC [3] | Molar enthalpy of solution, Phosphate buffer (pH8) ΔsolH [4] | Enthalpy of solvation ΔsolvH ([2]; calculated by equation 3 from enthalpies of solution of drug and solvate in the solvent of solvation) | Desolvation temperature ([3]; listed as IV) | Desolvation temperature ([3]; listed as Solvate- IV)
1 | CC(C)=O.CC(C)=O.CC(C)c1c(C(=O)Nc2ccccc2)c(-c2ccccc2)c(-c2ccc(F)cc2)n1CC[C@@H](O)C[C@@H](O)CC(=O)[O-].CC(C)c1c(C(=O)Nc2ccccc2)c(-c2ccccc2)c(-c2ccc(F)cc2)n1CC[C@@H](O)C[C@@H](O)CC(=O)[O-].CC(C)c1c(C(=O)Nc2ccccc2)c(-c2ccccc2)c(-c2ccc(F)cc2)n1CC[C@@H](O)C[C@@H](O)CC(=O)[O-].CC(C)c1c(C(=O)Nc2ccccc2)c(-c2ccccc2)c(-c2ccc(F)cc2)n1CC[C@@H](O)C[C@@H](O)CC(=O)[O-].CCO.[Ca+2].[Ca+2] [Solvate VI] | 197 mg/dL | 174 mg/dL | -2.581 kcal/mol | 1.22 kcal/mol | 72.53 °C | 72.5 °C | 12.43 kcal/mol | 15.69 kcal/mol | 13.56 kcal/mol | 8.35 kJ mol^-1 | – | – | –
2 | CC(C)(C)O.CC(C)c1c(C(=O)Nc2ccccc2)c(-c2ccccc2)c(-c2ccc(F)cc2)n1CC[C@@H](O)C[C@@H](O)CC(=O)[O-].CC(C)c1c(C(=O)Nc2ccccc2)c(-c2ccccc2)c(-c2ccc(F)cc2)n1CC[C@@H](O)C[C@@H](O)CC(=O)[O-].CC(C)c1c(C(=O)Nc2ccccc2)c(-c2ccccc2)c(-c2ccc(F)cc2)n1CC[C@@H](O)C[C@@H](O)CC(=O)[O-].CC(C)c1c(C(=O)Nc2ccccc2)c(-c2ccccc2)c(-c2ccc(F)cc2)n1CC[C@@H](O)C[C@@H](O)CC(=O)[O-].[Ca+2].[Ca+2] [Solvate IV] | 204 mg/dL | 168 mg/dL | 0.755 kcal/mol | 1.3 kcal/mol | – | – | 18.72 kcal/mol | 32.655 kcal/mol | 18.85 kcal/mol | 11.50 kJ mol^-1 | -7.574 kcal/mol | 90(±8) °C | 83. 34 °C
